This is an account of results in US7576086B2, “Aralkyl-alcohol peiperazine derivatives and their uses as antidepressant” (Shanghai Institute of Pharmaceutical Industry, priority 2002, dated 2009).

Series [1] deals with mouse. The series can be described thus: Mouse forced swimming test. The class given is in vivo. The settings on record: control 93.4±27.36. The procedure: (§1) Using the tail suspension test of “behavioural despair” and the mouse forced swimming test, and choosing Desipra mine as control medicament, to study the primary antidepressant effect of IV-19 that has the strong inhibited effect for both uptake of 5-HT and NA. The results are as follows:
(2). In the mouse forced swimming test, IV-19 also can diminish obviously the immobile times of mouse in water due to despair. As the results of tail suspension test, the effect induced by 50 mg/kg IV-19 (46.3±30.2 sec) is the same as 10 mg/kg Desipra mine (46±27.36 sec), but a significant difference occurs when comparing with control (93.4±27.36).

The subject of series [2] is mouse. The series can be described thus: Tail suspension test of behavioural despair. The class given is in vivo. Conditions: control 89.7±38.27. The procedure:
as §1
(1). In the tail suspension test, IV-19 can diminish obviously the immobile times of mouse due to despair. The effect induced by 50 mg/kg IV-19 (20.2±16.05 sec) is the same as 10 mg/kg Desipra mine (27.5±21.93 sec), but a significant difference occurs when comparing with control (89.7±38.27).

Series [3] deals with Brain Synaptosome Uptake of NA. The series can be described thus: Inhibition of [3H]-NA uptake by brain synaptosomes. It counts as biochemical, rats. The settings on record: 0.1 mmol/L; rat frontal cortex synaptosomes; inhibited ratio by Desipramine counts 100%. The text has this:
(§2) The trial of uptaking the mono-amines neurotransmitter by synaptosomes is now one of the common method to study the central nervous pharmacology. This method is not only used to study the action mechanism of the medicament, but also to look for new antidepressant drugs which act on this tache. […] The method is recounted as follows:
(§3) (1). Preparation of synaptosomes. According to the described method by literatures (a. Biochem Pharmacol 1973, 22: 311-322, b. Methods in Neurochemistry, Vol. 2, New York: Marcel Dakker, Inc, 1972, 1-52), rats were decapitated, the brains rapidly excised, and frontal cortex dissected out on ice-cold saline (4° C.). The 3 g tissue was homogenized in 30 ml of ice-cold 0.32M sucrose and then centrifuged (1500 g) for 10 min (4° C.). The pellet was discarded and the supernatant centrifuged (20000 g) for 30 min (4° C.). After refined, the pellet was resuspended in buffer and immediately used. Protein content was deter mined with kit of total protein.
(§4) (2). Uptake of 5-HT. According to the described method by literatures (Br J Pharmacol, 1997, 122: 302-306; b. 1992, 105: 147-151), in the tubes, 1.0 ml artificial cerebral fluid, 20 μl suspension of synaptosomes and 10 μl solution of compound were added. After mixing, the tubes were incubated 5 min in 37° C. Uptake was started by addition of 10 μl [^3H]-5-HT or [^3H]-NA (300 nM), after another mixing, the tubes were incubated again 5 min in 37° C. The reaction was stopped by cooling the tubes in ice, the samples were then filtered through glass fibre filters and washed twice with artificial cerebral fluid. After drying in 60-70° C., the filter membranes were put into scintillation tubes. Filter-bound radioactivity was counted by scintillation spectrometry. The difference in [^3H]-5-HT or [^3H]-NA at 37° C. and 0° C. was taken as a measure of active uptake.

Series [4] relates to Brain Synaptosome Uptake of 5-HT. The series can be described thus: Inhibition of [3H]-5-HT uptake by brain synaptosomes. It counts as biochemical, rats. The settings on record: 0.1 mmol/L; rat frontal cortex synaptosomes; inhibited ratio by Fluoxetine counts 100%.
Text: as §2, §3, §4

Series [5] has as its system S. Typhimurium TA97, TA98, TA100 and TA102. The series can be described thus: Bacterial reverse-mutation assay (Ames TS). The class given is cell-based. The source says: 4. Bacterial reverse-mutation assay (Ames TS) of IV-19
Bacillus: S. Typhimurium TA97, TA98, TA100 and TA102
All tested doses didn't induce the evident increase of revertants, Ames TS of […] is negative.

The subject of series [6] is mice. The series is described as follows: Acute toxicity. Conditions: p.o. in mice, calculated with Bliss. It counts as in vivo.

On to `CNCCCN1c2ccccc2CCc2ccccc21` [Desipra mine, reference compound], for which the “immobile times of mouse in water, forced swimming test” value in series [1] (10 mg/kg) was 46 ± 27.36 s. Further, the “immobile times of mouse, tail suspension test” value in series [2] (10 mg/kg) amounted to 27.5 ± 21.93 s. Also, the “Inhibited ratio of uptake for NA(%)” value in series [3] is listed as 100%.

Regarding `Cl.Cl.OC(c1ccccc1)C(c1ccccc1)N1CCN(Cc2ccccc2)CC1` (centres unmarked) [IV-8, N^1-benzyl-N^4-[(1,2-diphenyl)ethyl-2-ol] piperazine dihydrochloride], in series [4], the “Inhibited ratio of uptake for 5-HT(%)” value was below 10%. The “Inhibited ratio of uptake for NA(%)” value in series [3] turned out to be 104%.

For `Cl.Cl.OC(CN1CCN(Cc2ccc(F)cc2)CC1)c1ccc(Cl)cc1` (centres unmarked) [IV-11, N^1-(4-fluorobenzyl)-N^4-[2-(4-chlorophenyl)ethyl-2-ol] piperazine dihydrochloride], the “Inhibited ratio of uptake for 5-HT(%)” value in series [4] was 81%. In series [3], the “Inhibited ratio of uptake for NA(%)” value amounted to 101%.

As to `COc1ccc2cc(C(O)C(C)N3CCN(c4cccc(Cl)c4)CC3)ccc2c1Cl.Cl.Cl` (centres unmarked) [IV-17, N^1-(3-chlorophenyl)-N^4-[1-(5-chloro-6-methoxyl-naphthalen-2-yl)-propane-2-yl-1-ol] piperazine dihydrochloride], in series [4], the “Inhibited ratio of uptake for 5-HT(%)” value worked out at 99%. Moreover, in series [3], the “Inhibited ratio of uptake for NA(%)” value was 30%.

Turning to `COc1ccc2cc(C(O)C(C)N3CCN(CC(O)c4ccccc4)CC3)ccc2c1Cl.Cl.Cl` (centres unmarked) [IV-18, N^1-(2-phenylethyl-2-ol)-N^4-[1-(5-chloro-6-methoxyl-naphthalen-2-yl)-propane-2-yl-1-ol] piperazine dihydrochloride], the “Inhibited ratio of uptake for 5-HT(%)” value in series [4] is 127%. Besides, the “Inhibited ratio of uptake for NA(%)” value in series [3] is 23%.

With `COc1ccc2cc(C(O)C(C)N3CCN(Cc4ccc([N+](=O)[O-])cc4)CC3)ccc2c1Cl.Cl.Cl` (centres unmarked) [IV-20, N^1-(4-nitrobenzyl)-N^4-[1-(5-chloro-6-methoxyl-naphthalen-2-yl)-propane-2-yl-1-ol] piperazine dihydrochloride], the “Inhibited ratio of uptake for 5-HT(%)” value in series [4] stood at 110%. Moreover, the “Inhibited ratio of uptake for NA(%)” value in series [3] turned out to be 108%.

As for `COc1cc(CN2CCN(C(C)C(O)c3ccc4c(Cl)c(OC)ccc4c3)CC2)cc(OC)c1OC.Cl.Cl` (centres unmarked) [IV-22, N^1-(3,4,5-trimethoxybenzyl)-N^4-[1-(5-chloro-6-methoxyl-naphthalen-2-yl)-propane-2-yl-1-ol] piperazine dihydrochloride], the “Inhibited ratio of uptake for 5-HT(%)” value in series [4] was 116%. Also, in series [3], the “Inhibited ratio of uptake for NA(%)” value turned out to be 77%.

On to “N^1-(4-chlorobenzyl)-N^4-(phenylpropane-2-yl-3-ol) piperazine dihydrochloride [IV-2]”, for which the “Inhibited ratio of uptake for 5-HT(%)” value in series [4] amounted to 82%. For the same molecule, the “Inhibited ratio of uptake for NA(%)” value in series [3] was 62%.

With “N^1-(4-fluorobenzyl)-N^4-(2-phenylethyl-2-ol) piperazine dihydrochloride [IV-6]”, the “Inhibited ratio of uptake for 5-HT(%)” value in series [4] worked out at 79%. For the same molecule, the “Inhibited ratio of uptake for NA(%)” value in series [3] was 107%.

Regarding “N^1-(4-nitrobenzyl)-N^4-(2-phenylethyl-2-ol) piperazine dihydrochloride [IV-26]”, the “Inhibited ratio of uptake for 5-HT(%)” value in series [4] is 63%. Also, the “Inhibited ratio of uptake for NA(%)” value in series [3] is listed as 80%.

On to “N^1-(R-1-phenylethyl)-N^4-[1-(5-chloro-6-methoxyl-naphthalen-2-yl)-propane-2-yl-1-ol] piperazine dihydrochloride [IV-35]”, for which the “Inhibited ratio of uptake for 5-HT(%)” value in series [4] is given as 107%. The “Inhibited ratio of uptake for NA(%)” value in series [3] was determined as 58%.

On to “N^1-(S-1-phenylethyl)-N^4-[1-(5-chloro-6-methoxyl-naphthalen-2-yl)-propane-2-yl-1-ol] piperazine dihydrochloride [IV-34]”, for which the “Inhibited ratio of uptake for 5-HT(%)” value in series [4] is 108%. Moreover, in series [3], the “Inhibited ratio of uptake for NA(%)” value was 10%.

As for “N^1-benzyl-N^4-[1-(5-chloro-6-methoxyl-naphthalen-2-yl)-propane-2-yl-1-ol] piperazine dihydrochloride [IV-19]”, the “Inhibited ratio of uptake for 5-HT(%)” value in series [4] worked out at 114%. Moreover, the “Ames TS result (increase of revertants)” value in series [5] (TA97, TA98, TA100, TA102, without S9 and with S9, all tested doses) was “negative”. The “inhibitory effect for the growth of bacteria” value in series [5] (TA97, with S9, 5000 μg/utensil) is “inhibitory effect”; in series [5] (TA98, without S9, 5000 μg/utensil), “inhibitory effect”. In series [1] (50 mg/kg), the “immobile times of mouse in water, forced swimming test” value was determined as 46.3 ± 30.2 s. The “immobile times of mouse, tail suspension test” value in series [2] (50 mg/kg) is 20.2 ± 16.05 s. Moreover, the “Inhibited ratio of uptake for NA(%)” value in series [3] worked out at 140%. In addition, in series [6], the LD50 result is reported as “about 1 g/kg”.

On to “N^1-benzyl-N^4-[2-(4-chlorophenyl)ethyl-2-ol] piperazine dihydrochloride [IV-4]”, for which, in series [4], the “Inhibited ratio of uptake for 5-HT(%)” value was found to be 85%. In addition, the “Inhibited ratio of uptake for NA(%)” value in series [3] was 51%.
